A short description of this experiment: Selectivity ratio of IC50 for inhibition of clostridium perfringens OGA to IC50 for Inhibition of human recombinant full-length OGA transcript variant 1 expressed in HEK293T cells. Type of experiment: cell-based.

For the compound `CC(=O)Nc1ncc(CN2CCC3(CCN(c4cc(C)nc5ncnn45)C3)C2)s1` (configuration not stated), the Ratio IC50 is 100.

As for `CC(=O)Nc1ncc(CN2CC3(CCN(c4cc(C)nc5ncnn45)C3)C2)s1`, the Ratio IC50 was found to be 100.

The record behind these values is ChEMBL document CHEMBL4673290, “Diazaspirononane Nonsaccharide Inhibitors of O-GlcNAcase (OGA) for the Treatment of Neurodegenerative Disorders” (J Med Chem, 2020).
